Numbers after ± are expanded uncertainties.
Key:
[1] = 298.15 K; for surface tension liquid-gas: Ring tensiometer; for mass density: 101.33 kPa, Liquid, Vibrating tube method
[2] = xn = mol fraction of the nth substance listed; settings: 298.15 K, Ring tensiometer

Q: With CCn1cc[n+](C)c1.COP(=O)([O-])OC [1-ethyl-3-methylimidazolium dimethylphosphate] as the molecule, how does the surface tension liquid-gas [1] read?
A: 44.3 ± 0.62 mN/m

Q: What does the source list for CCOP(=O)([O-])OCC.CCn1cc[n+](C)c1 [1-ethyl-3-methylimidazolium diethyl phosphate]?
A: surface tension liquid-gas [1]: 37.1 ± 0.5 mN/m; mass density [1]: 1148.86 ± 0.14 kg/m3

Q: With CCCCn1cc[n+](C)c1.COP(=O)([O-])OC [1-butyl-3-methyl-1H-imidazolium dimethylphosphate] as the molecule, how does the surface tension liquid-gas [1] read?
A: 38 ± 0.5 mN/m

Q: Which results are given for CCO [ethanol]?
A: surface tension liquid-gas [1]: 21.9 ± 0.3 mN/m; mass density [1]: 785.83 ± 0.17 kg/m3

Q: Which surface tension liquid-gas [1] does the source give for CCCCOP(=O)([O-])OCCCC.CCCCn1cc[n+](C)c1 [1-butyl-3-methylimidazolium dibutyl phosphate] here?
A: 29.4 ± 0.4 mN/m

Q: What about the mass density [1] of the same molecule?
A: 1046.18 ± 0.09 kg/m3

Q: Which surface tension liquid-gas [1] does the source give for CCOP(=O)([O-])OCC.CCn1cc[n+](CC)c1 [1,3-diethyl-1H-imidazol-3-ium diethyl phosphate] here?
A: 35.5 ± 0.5 mN/m

Q: And the mass density [1]?
A: 1125.96 ± 0.15 kg/m3

Q: For COP(=O)([O-])OC.Cn1cc[n+](C)c1 [1,3-dimethylimidazolium dimethylphosphate] + O, which surface tension liquid-gas ([2]; x1 = 0.02) is on record?
A: 67 ± 0.9 mN/m

Q: What about the surface tension liquid-gas ([2]; x1 = 0.04) of the same molecule?
A: 64.2 ± 0.9 mN/m

Q: And the surface tension liquid-gas ([2]; x1 = 0.08)?
A: 59.5 ± 0.8 mN/m

Q: And the surface tension liquid-gas ([2]; x1 = 0.1)?
A: 55.7 ± 0.8 mN/m

Q: What about the surface tension liquid-gas ([2]; x1 = 0.12) of the same molecule?
A: 53.6 ± 0.7 mN/m

Q: What about the surface tension liquid-gas ([2]; x1 = 0.14) of the same molecule?
A: 52.2 ± 0.7 mN/m

Q: And the surface tension liquid-gas ([2]; x1 = 0.2)?
A: 51.8 ± 0.7 mN/m

Q: And the surface tension liquid-gas ([2]; x1 = 0.3)?
A: 50.6 ± 0.7 mN/m

Q: And the surface tension liquid-gas ([2]; x1 = 0.4)?
A: 50 ± 0.7 mN/m

Q: And the surface tension liquid-gas ([2]; x1 = 0.5)?
A: 49.8 ± 0.7 mN/m

Q: What about the surface tension liquid-gas ([2]; x1 = 0.6) of the same molecule?
A: 49.3 ± 0.7 mN/m

Q: What about the surface tension liquid-gas ([2]; x1 = 0.7) of the same molecule?
A: 49.1 ± 0.7 mN/m

Q: What about the surface tension liquid-gas ([2]; x1 = 0.8) of the same molecule?
A: 48.9 ± 0.7 mN/m

Q: What about the surface tension liquid-gas ([2]; x1 = 0.9) of the same molecule?
A: 48.6 ± 0.6 mN/m

Q: And the surface tension liquid-gas ([2]; x1 = 1)?
A: 48.4 ± 0.6 mN/m

Q: For O [water] + CCCCOP(=O)([O-])OCCCC.CCCCn1cc[n+](C)c1, which surface tension liquid-gas ([2]; x2 = 0) is on record?
A: 71.9 ± 0.9 mN/m

Q: With CO [methanol] + CCn1cc[n+](C)c1.COP(=O)([O-])OC as the molecule, how does the surface tension liquid-gas ([2]; x2 = 0) read?
A: 22.4 ± 0.3 mN/m

Q: With O [water] + CCCCn1cc[n+](CC)c1.CCOP(=O)([O-])OCC as the molecule, how does the surface tension liquid-gas ([2]; x2 = 0) read?
A: 71.9 ± 0.9 mN/m

Q: Which results are given for CO [methanol]?
A: surface tension liquid-gas [1]: 22.4 ± 0.3 mN/m; mass density [1]: 786.55 ± 0.17 kg/m3

Q: For CCCCn1cc[n+](CC)c1.CCOP(=O)([O-])OCC [1-butyl-3-ethyl-1H-imidazol-3-ium diethyl phosphate], which surface tension liquid-gas [1] is on record?
A: 32.2 ± 0.5 mN/m

Q: What about the mass density [1] of the same molecule?
A: 1083.21 ± 0.1 kg/m3

Q: Which surface tension liquid-gas ([2]; x2 = 0) does the source give for CCO [ethanol] + CCn1cc[n+](C)c1.COP(=O)([O-])OC here?
A: 21.9 ± 0.3 mN/m

Q: For O [water] + CCOP(=O)([O-])OCC.CCn1cc[n+](CC)c1, which surface tension liquid-gas ([2]; x2 = 0) is on record?
A: 71.9 ± 0.9 mN/m

Q: With CCO [ethanol] + CCOP(=O)([O-])OCC.CCn1cc[n+](CC)c1 as the molecule, how does the surface tension liquid-gas ([2]; x2 = 0) read?
A: 21.9 ± 0.3 mN/m

Q: For O [water], which surface tension liquid-gas [1] is on record?
A: 71.9 ± 0.9 mN/m

Q: With CCO [ethanol] + CCCCn1cc[n+](C)c1.COP(=O)([O-])OC as the molecule, how does the surface tension liquid-gas ([2]; x2 = 0) read?
A: 21.9 ± 0.3 mN/m

Q: What does the source list for CCCCn1cc[n+](C)c1.COP(=O)([O-])OC [1-butyl-3-methyl-1H-imidazolium dimethylphosphate] + CO?
A: surface tension liquid-gas ([2]; x1 = 0.1): 26.5 ± 0.4 mN/m; surface tension liquid-gas ([2]; x1 = 0.2): 29.2 ± 0.4 mN/m; surface tension liquid-gas ([2]; x1 = 0.3): 30.8 ± 0.4 mN/m; surface tension liquid-gas ([2]; x1 = 0.4): 32.3 ± 0.5 mN/m; surface tension liquid-gas ([2]; x1 = 0.5): 33.8 ± 0.5 mN/m; surface tension liquid-gas ([2]; x1 = 0.6): 35.1 ± 0.5 mN/m; surface tension liquid-gas ([2]; x1 = 0.7): 35.9 ± 0.5 mN/m; surface tension liquid-gas ([2]; x1 = 0.8): 38 ± 0.5 mN/m; surface tension liquid-gas ([2]; x1 = 0.9): 38.1 ± 0.5 mN/m; surface tension liquid-gas ([2]; x1 = 1): 38 ± 0.5 mN/m

Q: Which surface tension liquid-gas ([2]; x1 = 0.1) does the source give for CCn1cc[n+](C)c1.COP(=O)([O-])OC [1-ethyl-3-methylimidazolium dimethylphosphate] + CCO here?
A: 22.9 ± 0.4 mN/m

Q: What about the surface tension liquid-gas ([2]; x1 = 0.2) of the same molecule?
A: 24 ± 0.4 mN/m

Q: What about the surface tension liquid-gas ([2]; x1 = 0.3) of the same molecule?
A: 25.5 ± 0.4 mN/m

Q: And the surface tension liquid-gas ([2]; x1 = 0.4)?
A: 27.5 ± 0.4 mN/m

Q: What about the surface tension liquid-gas ([2]; x1 = 0.5) of the same molecule?
A: 29.5 ± 0.4 mN/m

Q: What about the surface tension liquid-gas ([2]; x1 = 0.6) of the same molecule?
A: 31.7 ± 0.5 mN/m

Q: What about the surface tension liquid-gas ([2]; x1 = 0.7) of the same molecule?
A: 34 ± 0.5 mN/m

Q: And the surface tension liquid-gas ([2]; x1 = 0.8)?
A: 36.5 ± 0.5 mN/m

Q: And the surface tension liquid-gas ([2]; x1 = 0.9)?
A: 39.3 ± 0.6 mN/m

Q: And the surface tension liquid-gas ([2]; x1 = 1)?
A: 44.3 ± 0.6 mN/m

Q: Which surface tension liquid-gas ([2]; x2 = 0) does the source give for CO [methanol] + CCOP(=O)([O-])OCC.CCn1cc[n+](CC)c1 here?
A: 22.4 ± 0.3 mN/m

Q: For CCO [ethanol] + CCOP(=O)([O-])OCC.CCn1cc[n+](C)c1, which surface tension liquid-gas ([2]; x2 = 0) is on record?
A: 21.9 ± 0.3 mN/m

Q: Which surface tension liquid-gas ([2]; x2 = 0) does the source give for CO [methanol] + COP(=O)([O-])OC.Cn1cc[n+](C)c1 here?
A: 22.4 ± 0.3 mN/m

Q: Which surface tension liquid-gas ([2]; x2 = 0) does the source give for CO [methanol] + CCCCn1cc[n+](C)c1.COP(=O)([O-])OC here?
A: 22.4 ± 0.3 mN/m

Q: Which surface tension liquid-gas ([2]; x1 = 0.1) does the source give for CCCCn1cc[n+](C)c1.COP(=O)([O-])OC [1-butyl-3-methyl-1H-imidazolium dimethylphosphate] + CCO here?
A: 22.8 ± 0.3 mN/m

Q: What about the surface tension liquid-gas ([2]; x1 = 0.2) of the same molecule?
A: 23.6 ± 0.4 mN/m

Q: And the surface tension liquid-gas ([2]; x1 = 0.3)?
A: 25 ± 0.4 mN/m

Q: What about the surface tension liquid-gas ([2]; x1 = 0.4) of the same molecule?
A: 26.9 ± 0.4 mN/m

Q: And the surface tension liquid-gas ([2]; x1 = 0.5)?
A: 28.5 ± 0.4 mN/m

Q: And the surface tension liquid-gas ([2]; x1 = 0.6)?
A: 30.5 ± 0.4 mN/m

Q: And the surface tension liquid-gas ([2]; x1 = 0.7)?
A: 32.3 ± 0.5 mN/m

Q: What about the surface tension liquid-gas ([2]; x1 = 0.8) of the same molecule?
A: 34 ± 0.5 mN/m

Q: What about the surface tension liquid-gas ([2]; x1 = 0.9) of the same molecule?
A: 36 ± 0.5 mN/m

Q: What about the surface tension liquid-gas ([2]; x1 = 1) of the same molecule?
A: 38 ± 0.5 mN/m

Q: Which surface tension liquid-gas [1] does the source give for COP(=O)([O-])OC.Cn1cc[n+](C)c1 [1,3-dimethylimidazolium dimethylphosphate] here?
A: 48.4 ± 0.6 mN/m

Q: And the mass density [1]?
A: 1252.6 ± 0.22 kg/m3

Q: With CCn1cc[n+](C)c1.COP(=O)([O-])OC [1-ethyl-3-methylimidazolium dimethylphosphate] + CO as the molecule, how does the surface tension liquid-gas ([2]; x1 = 0.1) read?
A: 26.7 ± 0.4 mN/m

Q: What about the surface tension liquid-gas ([2]; x1 = 0.2) of the same molecule?
A: 29.5 ± 0.4 mN/m

Q: And the surface tension liquid-gas ([2]; x1 = 0.3)?
A: 31.8 ± 0.5 mN/m

Q: And the surface tension liquid-gas ([2]; x1 = 0.4)?
A: 33.7 ± 0.5 mN/m

Q: What about the surface tension liquid-gas ([2]; x1 = 0.5) of the same molecule?
A: 35.6 ± 0.5 mN/m

Q: And the surface tension liquid-gas ([2]; x1 = 0.6)?
A: 37 ± 0.5 mN/m

Q: What about the surface tension liquid-gas ([2]; x1 = 0.7) of the same molecule?
A: 38.9 ± 0.6 mN/m

Q: What about the surface tension liquid-gas ([2]; x1 = 0.8) of the same molecule?
A: 40.6 ± 0.6 mN/m

Q: And the surface tension liquid-gas ([2]; x1 = 0.9)?
A: 42.4 ± 0.6 mN/m

Q: What about the surface tension liquid-gas ([2]; x1 = 1) of the same molecule?
A: 44.3 ± 0.6 mN/m

Q: For CCOP(=O)([O-])OCC.CCn1cc[n+](CC)c1 [1,3-diethyl-1H-imidazol-3-ium diethyl phosphate] + O, which surface tension liquid-gas ([2]; x1 = 0.1) is on record?
A: 40.7 ± 0.7 mN/m

Q: What about the surface tension liquid-gas ([2]; x1 = 0.2) of the same molecule?
A: 37.4 ± 0.5 mN/m

Q: And the surface tension liquid-gas ([2]; x1 = 0.3)?
A: 37.2 ± 0.5 mN/m

Q: What about the surface tension liquid-gas ([2]; x1 = 0.4) of the same molecule?
A: 36.6 ± 0.5 mN/m

Q: And the surface tension liquid-gas ([2]; x1 = 0.5)?
A: 36.4 ± 0.5 mN/m

Q: What about the surface tension liquid-gas ([2]; x1 = 0.6) of the same molecule?
A: 36.2 ± 0.5 mN/m

Q: And the surface tension liquid-gas ([2]; x1 = 0.7)?
A: 36 ± 0.5 mN/m

Q: And the surface tension liquid-gas ([2]; x1 = 0.8)?
A: 36.1 ± 0.5 mN/m

Q: And the surface tension liquid-gas ([2]; x1 = 0.9)?
A: 35.9 ± 0.5 mN/m

Q: And the surface tension liquid-gas ([2]; x1 = 1)?
A: 35.5 ± 0.5 mN/m

Q: For O [water] + CCOP(=O)([O-])OCC.CCn1cc[n+](C)c1, which surface tension liquid-gas ([2]; x2 = 0) is on record?
A: 71.9 ± 0.9 mN/m

Q: For CCO [ethanol] + CCCCn1cc[n+](CC)c1.CCOP(=O)([O-])OCC, which surface tension liquid-gas ([2]; x2 = 0) is on record?
A: 21.9 ± 0.3 mN/m

Q: With O [water] + COP(=O)([O-])OC.Cn1cc[n+](C)c1 as the molecule, how does the surface tension liquid-gas ([2]; x2 = 0) read?
A: 71.9 ± 0.9 mN/m

Q: With COP(=O)([O-])OC.Cn1cc[n+](C)c1 [1,3-dimethylimidazolium dimethylphosphate] + CO as the molecule, how does the surface tension liquid-gas ([2]; x1 = 0.1) read?
A: 26.9 ± 0.4 mN/m

Q: What about the surface tension liquid-gas ([2]; x1 = 0.2) of the same molecule?
A: 30.4 ± 0.4 mN/m

Q: And the surface tension liquid-gas ([2]; x1 = 0.3)?
A: 33.1 ± 0.5 mN/m

Q: What about the surface tension liquid-gas ([2]; x1 = 0.4) of the same molecule?
A: 35.7 ± 0.5 mN/m

Q: What about the surface tension liquid-gas ([2]; x1 = 0.5) of the same molecule?
A: 38.1 ± 0.5 mN/m

Q: And the surface tension liquid-gas ([2]; x1 = 0.6)?
A: 40 ± 0.5 mN/m

Q: And the surface tension liquid-gas ([2]; x1 = 0.7)?
A: 41.6 ± 0.6 mN/m

Q: What about the surface tension liquid-gas ([2]; x1 = 0.8) of the same molecule?
A: 43.6 ± 0.6 mN/m

Q: What about the surface tension liquid-gas ([2]; x1 = 0.9) of the same molecule?
A: 46.2 ± 0.6 mN/m

Q: And the surface tension liquid-gas ([2]; x1 = 1)?
A: 48.4 ± 0.6 mN/m

Source: the NIST ThermoML archive (doi:10.1021/je400004j)
